According to patent US8497352B2, “Use of Wnt5-α peptide derivates for the treatment of melanoma and gastric cancer” (Wntresearch AB, priority 2008, dated 2013):
Bridges are numbered along the chain shown (N, C = ends). Where no end group is shown, it is not given here.

Assays:
Type in all cases: cell-based, human
[1] = test system: Wnt-5a-induced Ca^2+ signaling; assay: Determination of cytosolic free calcium levels (fura-2) in A2058 cells; conditions: for Cytosolic Ca^2+ response in A2058 cells, control G-protein coupled receptor ligands: endothelin-1 10 nM, charbacol 5 μM
Experimental: Cells grown on a glass cover slip were incubated with 4 μM fura-2/AM in culture medium for 30 minutes at 37° C. (Dejmek et al., 2006). After fura-2 loading of the cells, the cover slips were washed and mounted in a specially designed chamber to which was added a calcium-containing medium (136 mM NaCl, 4.7 mM KCl, 1.2 mM MgSO4, 1.1 mM CaCl2, 1.2 KH2PO4, 5 mM NaHCO3, 5.5 mM glucose and 20 mM Hepes, pH 7.4). The chamber was then placed in a system consisting of a NIKON Diaphot microscope connected to a Photon Technology International (PTI) imaging system. The cells were first allowed to rest for 10 minutes before any stimulation was performed. Fura-2 fluorescence was then recorded continuously from the cells before and after the stimulations with either Wnt-5a, endothelin-1 or charbacol (as indicated in the legend to FIG. 8) using an excitation wavelength rapidly alternating between 340 and 380 nm, while the emission wavelength was set at 510 nm. The fluorescence intensity ratios (340/380 nm) were subsequently calculated and analyzed using the PTI Image Master Software. Statistical analysis—The Student's t-test for unpaired samples was used to analyze differences in the experiments, where *=p<0.05, **=p<0.01, and ***=p<0.001

A2058 melanoma cells [2] = assay: BD Matrigel invasion chamber assay, A2058 cells
Experimental: Cell invasion was analyzed using the BD Matrigel™ invasion chamber assay (BD Biosciences, Bedford, Mass.). Prior to the initiation of each experiment, the cells were detached with Versene and re-suspended as single cells in serum-free RPMI medium. As indicated, cells were pre-incubated with the Box5 peptide (100 μM) or control solvent for 40 min with continuous agitation. An aliquot of the cell suspension containing 25,000 cells and 100 μM Box5 or control solvent was then added to the upper transwell chamber, and the lower chamber was filled with serum-containing (10%) medium. The invasion chambers were shaken horizontally for 5 min to ensure even distribution of the cells in suspension and subsequently across the membrane surface. The cells were allowed to invade for the periods of time indicated at 37° C. in a humidified atmosphere of 5% CO2. The medium was discarded and cells were fixed in 4% paraformaldehyde for 10 min. The cells were stained with 0.5% crystal violet in 20% methanol for 10 min and the non-invading cells on the inner side of the membrane were removed with a cotton-tipped applicator. The membrane was cut out of the chamber using a scalpel blade and the stained cells on the lower chamber side of the membrane were counted.

A2058 melanoma cells [3] = assay: Wound-healing assay (migration), A2058 cells; conditions: 5 ng/ml TGF-β1
Experimental: Cells were plated in 12 well plates and allowed to grow into a confluent layer in complete RPMI (for A2058 cells) or complete McCoy's 5A medium (for HTB63 cells). As indicated, cells were pre-incubated with the Box5 peptide (100 μM) or control solvent for 40 min with continuous agitation. A wound was then inflicted by making a scratch through the confluent layer of cells with a pipette tip. During the migration period of the assay, cells were incubated either in serum-free medium or in the case of HTB63 cells in their own serum-free-conditioned medium collected from cells cultured for 48 h and used within 2 days after collection. The exact conditions of each experiment are described above. To avoid loss of activity, cell medium was changed after 24 hours. A picture for each scratch was taken in the same area of cells at 0, 16, 24, 40 and 48 hours, and wound healing was measured as percentage of wound area closed. For each experimental condition wound healing was analysed in triplicate. All data were based on 3 to 8 separate experiments as indicated.

[4] = test system: Wnt-5a protein expression; assay: Wnt-5a protein expression in A2058 cells, Western blot
Experimental: The cells were either directly lysed in 1× Laemmli buffer containing DTT and boiled for 10 min, or lysed in buffer containing 50 mM Tris-HCl (pH 7.5), 1% Triton X-100, 100 mM NaCl, 10 mM MgCl2, 20% glycerol, 1 mM Na3VO4, and protease inhibitors (20 μg/ml aprotinin, 1 μg/ml leupeptin, 2.5 mM benzamidine, and 2 mM pefabloc). Cell treated with lysis buffer were centrifuged at 15,000 rpm for 5 min at 4° C. The protein content in each sample was determined and adjusted to ensure equal loading of protein in each lane. Thereafter, 50 mM DTT and 5× concentrated Laemmli buffer was added and the samples boiled for 5 min. The samples were separated by SDS polyacrylamide gel electrophoresis and subsequently transferred to PVDF membranes. For immunoblotting the membranes were blocked in PBS supplemented with 0.2% Tween 20 and 1% non-fat milk for Wnt-5a or 3% non-fat milk as for all other antibodies for 1 h. Thereafter the membranes were incubated for 1 h at room temperature or overnight at 4° C. with the indicated primary Ab (1:25,000 for β-actin; 1:1,000 for Wnt-5a and 1:1,000 for TGF-β1) in 2% non-fat milk or 1.5% BSA. After extensive washing in PBS with 0.2% Tween, the membranes were incubated for 1 h with a horseradish peroxidase-conjugated secondary Ab in 2% non-fat milk or 1.5% BSA and again extensively washed. Finally, the Ab-antigen complexes were detected using enhanced chemiluminescence. […]

A2058 melanoma cells [5] = assay: Cell adhesion assay, A2058 cells; conditions: TGF-β1, 60 min adhesion
Experimental: Cells pre-treated and stimulated as described below were detached with Versene, re-suspended in serum-free RPMI medium and samples containing 30,000 cells from each treatment group were added to each well of a 96-well plate The cells were allowed to adhere for 60 min at 37° C. in a humidified atmosphere of 5% carbon dioxide after which the non-adherent cells were washed away with PBS. The adherent cells were fixed in 1% glutaraldehyde for 10 min at room temperature and then stained with 0.5% crystal violet in 20% methanol for 10 min. Finally the stain from each group of cells was dissolved in 50% acetic acid. The amount of dissolved stain from each well was thereafter measured in a Fluostar plate reader (BMG Lab Technologies GmbH, Offenberg, Germany) at 544 nm. The individual samples from each separate experiment were analysed in quadruplicate and the accumulated data were based on 5 separate experiments. The results are illustrated in FIG. 4. • A) A2058 melanoma cells were stimulated with the indicated concentrations of Wnt-5a, detached with Versene and resuspended as single cells in serum-free medium in the presence or absence of recombinant Wnt-5a at the indicated concentrations. Cells were then allowed to adhere in a 96-well plate. After a period of 60 min the non-adherent cells were washed away while the adherent cells were stained and their number determined. This number is presented as a percentage of the control (no Wnt-5a) stimulation (FIG. 4A) • B) A2058 melanoma cells were cultured to confluence in a 12-well plate after which a scratch was inflicted in each well, the medium was changed to fresh serum-free medium lacking (closed circles) or containing 0.2 μg/ml Wnt-5a (open squares). (FIG. 4B) • C) A2058 melanoma cells were cultured to confluence in a 12-well plate after which a scratch was inflicted to each well, the medium was changed to fresh serum-free medium in the absence of any additive (closed circle), the presence of 0.2 μg/ml Wnt-5a alone (open squares) or the presence of 0.2 μg/ml Wnt-5a with 100 μM Box5 (open triangle). (FIG. 4C) • D) HTB63 melanoma cells were cultured to confluence in a 12-well dish after which a scratch was inflicted to each well, the medium was changed to fresh serum-free medium (closed circle), conditioned medium (open squares) or conditioned medium supplemented with 100 μM Box5 (open triangle). To record changes in migration in panels B-D, a picture was taken from each scratch/well from the same area of cells after 0, 16, 24, 40 or 48 hours, and the wound-healing was expressed as percentage of wound area closed. […] The cells were then allowed to invade for 24 hours after which the attached cells on the lower side of the membrane were counted. […]

C[N+](C)(C)CCOC(N)=O [carbachol, reference compound] was tested, and the “Cytosolic Ca^2+ response in A2058 cells, control G-protein coupled receptor ligands” value [1] was “prompt responses”.

For CC(=O)OCOC(=O)CN(CC(=O)OCOC(C)=O)c1ccc(C)cc1OCCOc1cc(C)ccc1N(CC(=O)OCOC(C)=O)CC(=O)OCOC(C)=O [MAPT/AM, reference compound], the “Effect on Wnt-5a-stimulated cytosolic Ca^2+ signal” value ([1]; 10 μM MAPT/AM for 30 minutes, rWnt-5a 0.1 μg/ml) was “inhibited” and the “Effect on pro-invasive effect of Wnt-5a on A2058 cells” value (A2058 melanoma cells [2]; 10 μM MAPT/AM 30 minutes pre-incubation, then 1 μM for 24 hours) was “completely abolished”.

For “TGF-β1: human recombinant TGF-β1 protein from R&D Systems”, the “Effect on migration of A2058 cells” value (A2058 melanoma cells [3]) was “increased”, the “Concentration giving near maximal Wnt-5a expression” value ([4]; TGF-β1) was 5 ng/mL and the “Wnt-5a protein expression in A2058 cells” value ([4]; different concentrations of recombinant TGF-β1, 36 h) was “increased expression”. The “Concentration giving maximal effect on adhesion of A2058 cells” value (A2058 melanoma cells [5]) was 5 ng/mL, the “Effect on adhesive capacity of A2058 cells” value (A2058 melanoma cells [5]) was “stimulated” and the “Effect on migration of A2058 cells in the invasion assay” value (A2058 melanoma cells [2]; 5 ng/ml TGF-β1, 24 hours) was “inhibited”.

With “endothelin-1: G-protein coupled control receptor ligand from Sigma Aldrich (CSCSSLMDKECVYFCHLDIIW; disulfide 1-15, 3-11; ends not checked; UniProt P05305 53-73, looked up) [reference compound]” the “Cytosolic Ca^2+ response in A2058 cells, control G-protein coupled receptor ligands” value [1] was “prompt responses”.

B1: Wnt-3a: human recombinant Wnt-3a protein, canonical Wnt ligand (protein, UniProt P56704 19-352, looked up)
Protein Wnt-3a: SYPIWWSLAVGPQYSSLGSQPILCASIPGLVPKQLRFCRNYVEIMPSVAEGIKIGIQECQHQFRGRRWNCTTVHDSLAIFGPVLDKATRESAFVHAIASAGVAFAVTRSCAEGTAAICGCSSRHQGSPGKGWKWGGCSEDIEFGGMVSREFADARENRPDARSAMNRHNNEAGRQAIASHMHLKCKCHGLSGSCEVKTCWWSQPDFRAIGDFLKDKYDSASEMVVEKHRESRGWVETLRPRYTYFKVPTERDLVYYEASPNFCEPNPETGSFGTRDRTCNVSSHGIDGCDLLCCGRGHNARAERRREKCRCVFHWCCYVSCQECTRVYDVHTCK
In the case of B1, the “Stimulation of invasion of A2058 cells” value (A2058 melanoma cells [2]; 0.1 μg/ml Wnt-3a, 24 hours) is reported as “not seen”.
